Values joined by “and” are separate entries in the source; they are usually repeats but may differ in a detail not shown here. Equal values may be shown once. Inconclusive results and toxic doses are left out. How the source made its calls: active means survival T/C of 150% or more; inactive means T/C below 125% in these data.
System: CD2F1 mice, L1210 leukemia ip, survival T/C
Experiment: NCI In Vivo Anticancer Drug Screen. Data for tumor model L1210 Leukemia (intraperitoneal) in CD2F1 (CDF1) mice
Details: endpoint: mean survival time, higher = longer survival
Experimental: The antitumor activity of compounds was measured in mice bearing transplantable tumors. Survival or tumor size were measured and the results are expressed as the measurement made in the treated group (T) divided by the measurement made in the vehicle treated control group (C). The tumor model used in this assay is L1210 Leukemia (intraperitoneal) in CD2F1 (CDF1) mice

[1] = dose: 100.0 mg/kg/injection, schedule: Q04DX003 (ip), vehicle: saline with Tween-80
[2] = dose: 200.0 mg/kg/injection, schedule: Q04DX003 (ip), vehicle: saline with Tween-80
[3] = dose: 400.0 mg/kg/injection, schedule: Q04DX003 (ip), vehicle: saline with Tween-80
[4] = dose: 100.0 mg/kg/injection, schedule: Q01DX009 (ip), vehicle: saline with Tween-80
[5] = dose: 200.0 mg/kg/injection, schedule: Q01DX009 (ip), vehicle: saline with Tween-80
[6] = dose: 12.5 mg/kg/injection, schedule: Q01DX009 (ip), vehicle: saline with Tween-80
[7] = dose: 25.0 mg/kg/injection, schedule: Q01DX009 (ip), vehicle: saline with Tween-80
[8] = dose: 50.0 mg/kg/injection, schedule: Q01DX009 (ip), vehicle: saline with Tween-80
[9] = dose: 100.0 mg/kg/injection, schedule: Q01DX001 (ip), vehicle: saline with Tween-80
[10] = dose: 200.0 mg/kg/injection, schedule: Q01DX001 (ip), vehicle: saline with Tween-80
[11] = dose: 400.0 mg/kg/injection, schedule: Q01DX009 (ip), vehicle: saline with Tween-80
[12] = dose: 100.0 mg/kg/injection, schedule: Q04DX002 (ip), vehicle: saline with Tween-80
[13] = dose: 200.0 mg/kg/injection, schedule: Q04DX002 (ip), vehicle: saline with Tween-80
[14] = dose: 400.0 mg/kg/injection, schedule: Q04DX002 (ip), vehicle: saline with Tween-80
[15] = dose: 25.0 mg/kg/injection, schedule: Q01DX009 (ip), vehicle: Klucel (hydroxypropylcellulose) (HPC)
[16] = dose: 50.0 mg/kg/injection, schedule: Q01DX009 (ip), vehicle: Klucel (hydroxypropylcellulose) (HPC)

Measured: T/C

C=C1CC[C@]2(C)CC[C@]3(C)C4=CC=C5C(=CC(=O)C(O)=C5C)[C@]4(C)CC[C@@]3(C)[C@@H]2C1
inactive: dose: 0.12 mg/kg/injection, schedule: Q01DX009 (ip), vehicle: saline with Tween-80 103 % of control | dose: 0.25 mg/kg/injection, schedule: Q01DX009 (ip), vehicle: saline with Tween-80 102 % of control | dose: 0.5 mg/kg/injection, schedule: Q01DX009 (ip), vehicle: saline with Tween-80 108 % of control | dose: 1.0 mg/kg/injection, schedule: Q01DX009 (ip), vehicle: saline with Tween-80 86 % of control

CCn1ncc2ccc(N(CO)CO)cc21
inactive: dose: 100.0 mg/kg/injection, schedule: Q04DX003 (ip), vehicle: saline 103 % of control | dose: 200.0 mg/kg/injection, schedule: Q04DX003 (ip), vehicle: saline 106 % of control | dose: 400.0 mg/kg/injection, schedule: Q04DX003 (ip), vehicle: saline 100 % of control

CC/C=C(\CC(=O)OCC)C(=O)OCC
inactive: [1] 102 % of control | [2] 106 % of control | [3] 101 % of control

CC(C)NC(=O)N(c1ccccc1)C(C)C
inactive: [4] 102 % of control | [5] 90 % of control

O=C(O)C1=CC=C(c2ccccc2)C(=O)C1
inactive: [6] 100 % of control | [7] 98 % of control | [8] 88 % of control and 90 % of control | [9] 97 % of control | [10] 93 % of control

Cc1c(Cl)cccc1NC(=O)Nc1cccc2ccccc12
inactive: [4] 113 % of control | [1] 93 % of control | [5] 102 % of control | [2] 102 % of control | [11] 96 % of control | [3] 100 % of control

CC(=O)[O][Hg][O]C(C)=O
inactive: dose: 1.25 mg/kg/injection, schedule: Q01DX009 (ip), vehicle: saline sonified 95 % of control | dose: 2.5 mg/kg/injection, schedule: Q01DX009 (ip), vehicle: saline sonified 103 % of control | dose: 5.0 mg/kg/injection, schedule: Q01DX009 (ip), vehicle: saline sonified 90 % of control | dose: 5.0 mg/kg/injection, schedule: Q04DX003 (ip), vehicle: saline with Tween-80 106 % of control

O=C(NCc1ccccc1)C(Cc1ccccc1)(Cc1ccccc1)C(=O)NCc1ccccc1
inactive: [8] 102 % of control | [4] 97 % of control | [5] 93 % of control

O=[N+]([O-])c1ccc(-c2cn3ccsc3n2)cc1
inactive: dose: 100.0 mg/kg/injection, schedule: Q01DX001 (ip), vehicle: Klucel (hydroxypropylcellulose) (HPC) 87 % of control | dose: 200.0 mg/kg/injection, schedule: Q01DX001 (ip), vehicle: Klucel (hydroxypropylcellulose) (HPC) 90 % of control | dose: 400.0 mg/kg/injection, schedule: Q01DX001 (ip), vehicle: Klucel (hydroxypropylcellulose) (HPC) 90 % of control

Cn1c(=O)c2[nH]c(-c3cccnc3)nc2n(C)c1=O
inactive: dose: 12.5 mg/kg/injection, schedule: Q01DX005 (ip), vehicle: distilled water + Tween-80 92 % of control | dose: 25.0 mg/kg/injection, schedule: Q01DX005 (ip), vehicle: distilled water + Tween-80 98 % of control | dose: 50.0 mg/kg/injection, schedule: Q01DX005 (ip), vehicle: distilled water + Tween-80 98 % of control | dose: 100.0 mg/kg/injection, schedule: Q01DX005 (ip), vehicle: distilled water + Tween-80 98 % of control | dose: 200.0 mg/kg/injection, schedule: Q01DX005 (ip), vehicle: distilled water + Tween-80 116 % of control

O=C1c2ccccc2C(=O)c2c(NCCNCCNCCO)ccc(NCCNCCNCCO)c21
inactive: dose: 8.0 mg/kg/injection, schedule: Q01DX009 (ip), vehicle: acid diluted with saline 100 % of control | dose: 16.0 mg/kg/injection, schedule: Q01DX009 (ip), vehicle: acid diluted with saline 96 % of control | dose: 32.0 mg/kg/injection, schedule: Q01DX009 (ip), vehicle: acid diluted with saline 108 % of control | dose: 64.0 mg/kg/injection, schedule: Q01DX009 (ip), vehicle: acid diluted with saline 96 % of control

CC(=O)Oc1c(Br)cc2cc(Br)ccc2c1Br
inactive: [12] 90 % of control | [13] 98 % of control | [14] 98 % of control

Cc1c(N=Nc2cc[n+]([O-])cc2)ccc(N(C)C)c1C
inactive: [1] 102 % of control | [2] 97 % of control

COCC1=Nc2c(ncnc2SCc2ccccc2)NN1
inactive: dose: 100.0 mg/kg/injection, schedule: Q01DX001 (ip), vehicle: other 95 % of control

CN(C)[C@@H]1C(=O)C(C(N)=O)=C(O)[C@@]2(O)C(=O)C3=C(O)c4c(O)ccc(Cl)c4[C@@](C)(O)[C@H]3C[C@@H]12
inactive: [6] 98 % of control | dose: 12.5 mg/kg/injection, schedule: Q01DX009 (ip), vehicle: saline 107 % of control | [7] 97 % of control | dose: 25.0 mg/kg/injection, schedule: Q01DX009 (ip), vehicle: saline 101 % of control | [8] 93 % of control and 108 % of control | dose: 50.0 mg/kg/injection, schedule: Q01DX009 (ip), vehicle: saline 103 % of control | [4] 104 % of control and 111 % of control | dose: 100.0 mg/kg/injection, schedule: Q01DX009 (ip), vehicle: saline 113 % of control | [5] 102 % of control

CC(=N)c1ccc(C)cc1
inactive: dose: 6.25 mg/kg/injection, schedule: Q01DX001 (ip), vehicle: saline sonified 96 % of control | dose: 12.5 mg/kg/injection, schedule: Q01DX001 (ip), vehicle: saline sonified 96 % of control | dose: 25.0 mg/kg/injection, schedule: Q01DX001 (ip), vehicle: saline sonified 96 % of control

Nc1ccccc1Nc1ccncc1
inactive: [7] 100 % of control | [8] 101 % of control | [1] 91 % of control

CN(C)Cc1cccc2ccccc12
inactive: dose: 12.5 mg/kg/injection, schedule: Q01DX009 (ip), vehicle: Klucel (hydroxypropylcellulose) (HPC) 109 % of control | [15] 109 % of control | [16] 97 % of control

O=C(C1CCC2(CCCCC2)CC1)n1ccnc1
inactive: dose: 12.5 mg/kg/injection, schedule: Q01DX009 (ip), vehicle: other 95 % of control | dose: 25.0 mg/kg/injection, schedule: Q01DX009 (ip), vehicle: other 89 % of control | dose: 50.0 mg/kg/injection, schedule: Q01DX009 (ip), vehicle: other 106 % of control | dose: 100.0 mg/kg/injection, schedule: Q01DX009 (ip), vehicle: other 93 % of control | dose: 200.0 mg/kg/injection, schedule: Q01DX009 (ip), vehicle: other 97 % of control

Cc1cccc(Cl)c1C#N
inactive: [9] 104 % of control | [4] 94 % of control | [1] 107 % of control | [10] 106 % of control | [5] 100 % of control | [2] 101 % of control | dose: 400.0 mg/kg/injection, schedule: Q01DX001 (ip), vehicle: saline with Tween-80 106 % of control | [11] 90 % of control | [3] 100 % of control

N#CCc1nc2ccccc2[nH]1
inactive: [15] 98 % of control | [16] 93 % of control

COc1cc(OC)c(NC(=O)Nc2ccc(NC(C)=O)cc2)cc1Cl
inactive: [6] 103 % of control | [7] 103 % of control | [8] 103 % of control

CCC(/C=C1\Oc2ccc(-c3ccccc3)cc2N1CC)=C\c1oc2ccc(-c3ccccc3)cc2[n+]1CC
inactive: dose: 4.4 mg/kg/injection, schedule: Q01DX009 (ip), vehicle: other 117 % of control

Cc1cc(C)c(S(=O)(=O)F)cc1C(=O)O
inactive: [9] 101 % of control | [4] 96 % of control and 100 % of control | [12] 92 % of control and 104 % of control | [1] 107 % of control | [10] 95 % of control | [5] 93 % of control and 94 % of control | [13] 96 % of control and 104 % of control | [2] 102 % of control | [11] 96 % of control | [14] 94 % of control and 102 % of control | [3] 100 % of control

CCOC(=O)/C=C(\C)Sc1ccc(Cl)cc1
inactive: dose: 100.0 mg/kg/injection, schedule: Q04DX003 (ip), vehicle: alcohol 92 % of control | dose: 200.0 mg/kg/injection, schedule: Q04DX003 (ip), vehicle: alcohol 87 % of control | dose: 400.0 mg/kg/injection, schedule: Q04DX003 (ip), vehicle: alcohol 102 % of control

CC(C)OC(=O)C#CC(=O)O
inactive: dose: 25.0 mg/kg/injection, schedule: Q01DX001 (ip), vehicle: saline 97 % of control | dose: 50.0 mg/kg/injection, schedule: Q01DX001 (ip), vehicle: saline 97 % of control

Source: PubChem BioAssay AID256 (DTP/NCI, 2004)
